{"source": "patent US20230076515A1", "about": "“STIMULI THAT HYPERACTIVATE RESIDENT DENDRITIC CELLS FOR CANCER IMMUNOTHERAPY” (Children's Medical Center Corporation, priority 2019, published 2023)", "key": {"[1]": {"test_system": "T cells from skin draining lymph nodes", "assay": "In vivo OVA immunization and T cell re-stimulation", "set-up": "species or system mouse", "conditions": "for antigen-specific tetramer+IFNγ+ T cell responses: 7 days post immunization with OVA, 7 days ex vivo re-stimulation with OVA-loaded BMDC", "protocol": "Flow cytometry: After FcR blockade, 7 days BMDCs were resuspended in MACS buffer (PBS with 1% FCS and 2 mM EDTA), and stained with the following fluorescently conjugated antibodies (BioLegend): anti-CD11c (clone N418), anti-I-A/I-E (clone M5/114.15.2), anti-CD40 (clone 3/23), anti-CD80(16-10A1), anti-CD69 clone (H1.2F3), anti-H-2Kb (clone AF6-88.5). Single cell suspension from the tumor or draining inguinal lymph nodes, or skin inguinal adipose tissue were resuspended in MACS buffer (PBS with 1% FCS and 2 mM EDTA), and stained with the following fluorescently conjugated antibodies (BioLegend): anti-CD8α (clone 53-6.7), anti-CD4 (clone RM4-5), anti-CD44 (clone IM7), anti-CD62L (MEL-14), anti-CD3 (17A2), anti-CD103 (2E7), anti-CD69 clone (H1.2F3), anti-CD45 (A20 or 30F11). LIVE/DEAD™ Fixable Violet Dead Cell Stain Kit (Molecular probes) was used to determine the viability of cells, and cells were stained for 20 minutes in PBS at 4° C. Draining inguinal lymph nodes T cells were stained with OVA-peptide tetramers at room temperature for 1 h. PE-conjugated H2K(b) SIINFEKL (OVA 257-264; SEQ ID NO: 1) and APC conjugated I-A(b) AAHAEINEA (OVA 329-337; SEQ ID NO: 2) were used. I-A(b) and H2K(b) associated with CLIP peptides were used as isotype controls. Tetramers were purchased for NIH tetramer core facility. in some experiments, FITC anti-CD8.1 (clone Lyt-2.1 CD8-E1) purchased from accurate chemical was used with tetramers. To determine absolute number of cells, COUNTBRIGHT counting beads (Molecular probes) were used, following the manufacturer's protocol. Appropriate isotype controls were used as a staining control. Data were acquired on a BD FACS ARIA or BD Fortessa. Data were analyzed using FlowJo software.\nIntracellular staining: For intracellular cytokine staining, cells were stimulated with 50 ng/ml phorbol 12-myristate 13-acetate (PMA) and 500 ng/ml ionomycin (Sigma-Aldrich) in the presence of GolgiStop (BD) and brefeldin A for 4-5 h. Cells were then washed twice with PBS, and stained with LIVE/DEAD™ Fixable violet or green Dead Cell Stain Kit (Molecular probes) in PBS for 20 min at 4° C. Cells were washed with MACS buffer, and stained for appropriate surface markers for 20 min at 4° C. After two washes, cells were fixed and permeabilized using BD Cytofix/Cytoperm kit for 20 min at 4° C., then washed with 1× perm wash buffer (BD) per manufacturer's protocol. Intracellular cytokine staining was performed in 1× perm buffer for 20-30 min at 4° C. with the following conjugated antibodies all purchased from BioLegend: anti-Ki67 (clone 16A8), anti-IFN-γ (clone XMG1.2), anti TNFα (clone MP6-XT22), anti-Gata3 (16E10A23), anti-IL4(11B11), anti-IL10 (clone JES5-16E3). Data were acquired on a BD FACS ARIA or BD Fortessa. Data were analyzed using FlowJo software.\nIn vivo immunization and T cell re-stimulation: Female C57BL/6J mice aged 8 weeks, were immunized subcutaneously (s.c.) on the left lower back with either 150 μg/mouse endotoxin-free OVA plus 10 μg/mouse LPS emulsified in incomplete Freund's adjuvant, or with 150 μg/mouse endotoxin-free OVA, plus 65 μg/mouse oxPAPC or PGPC, plus 10 μg/mouse LPS emulsified in incomplete Freund's adjuvant. In some experiments mice were injected s.c. with OVA alone or with LPS emulsified in Alum. 7 or 40 days after immunization, CD4^+ T cells and CD8^+ T cells were isolated from the draining lymph nodes of immunized mice by magnetic cell sorting with anti-CD4 beads or anti-CD8 beads and columns (Miltenyi Biotech). Enriched cells were then sorted as live CD45^+CD3^+CD4^+ cells or live CD45^+CD3^+CD8^+ using FACS ARIA. Purity post-sorting was >98%. Sorted cells were then seeded in 96-well plates at a concentration of 100.000 cells per well in the presence of 10-20×10^3 DC pulsed with serial dilutions of OVA, starting at 1 mg/ml. […]"}, "BMDCs": {"test_system": "BMDCs", "assay": "BMDC stimulation, cytokine ELISA and LDH release", "format": "cell-based, mouse", "conditions": "LPS alone or LPS priming 3 h then stimuli 21 h, ELISA", "protocol": "Cell culture: BMDCs were generated by differentiating bone marrow in IMDM (Gibco), 10% B16-GM-CSF derived supernatant, 2 μM 2-mercaptoethanol, 100 U/ml penicillin, 100 μg/ml streptomycin (Sigma-Aldrich) and 10% FBS. 6 day after culture, BMDCs were washed with PBS and re-plated in IMDM with 10% FBS at a concentration of 1×10^6 cells/ml in a final volume of 100 μl. CD11c^+ DC purity was assessed by flow cytometry using BD Fortessa and was routinely above 80%. Splenic DCs from mice injected with B16-FLT3 for 15 days, were purified as CD11c^+MHC^+ live cells, then plated at a concentration of 1×10^6 cells/ml in a final volume of 100 μl in complete IMDM. To induce hyperactive or pyroptotic BMDCs, DCs were primed with LPS (1 μg/ml) for 3 hours, then stimulated with OxPAPC or PGPC (100 μg/ml) or alum (100 μg/ml) for 21 h in complete IMDM. […]\nLDH Assay and ELISAs: Fresh supernatants were clarified by centrifugation after BMDC stimulation, then assayed for LDH release assay using the Pierce LDH cytotoxicity colorimetric assay kit (Life Technologies) following the manufacturer's protocol. Measurements for absorbance readings were performed on a Tecan plate reader at wavelengths of 490 nm and 680 nm. […] ELISA for IL-1β, TNFα, IL-10, IL-12p70, IFNγ, IL-2, IL-13, IL-4 and IL-17 were performed using eBioscience Ready-SET-Go! […]"}, "OT-II naïve CD4+ T cells": {"test_system": "OT-II naïve CD4+ T cells", "assay": "OT-II in vitro T-cell stimulation", "format": "cell-based, mouse", "conditions": "OVA-loaded BMDCs co-cultured with OT-II T cells; ELISA", "protocol": "OT-I and OT-II in vitro T-cell stimulation: Splenic CD8^+ and CD4^+ T cells were sorted from OT-I and OT-II mice by magnetic cell sorting with anti-CD8 beads or anti-CD4 beads respectively (Miltenyi Biotech). Sorted T cells were then seeded in 96-well plates at a concentration of 100.000 cells per well in the presence of either 20.000 or 10.000 DCs (5:1 or 10:1 ratio) that were pretreated with either LPS (activation stimuli) or LPS+PGPC (hyperactivation stimuli) or LPS+Alum (pyroptotic stimuli) and pulsed (or not) with OVA protein or SIINFEKL (SEQ ID NO: 1) peptide at 100 μg/ml for 2 hours. 5 days post culture, supernatants were collected and clarified by centrifugation for short-term storage at −20° C. and cytokine measurement by ELISA.\nIntracellular staining: For intracellular cytokine staining, cells were stimulated with 50 ng/ml phorbol 12-myristate 13-acetate (PMA) and 500 ng/ml ionomycin (Sigma-Aldrich) in the presence of GolgiStop (BD) and brefeldin A for 4-5 h. Cells were then washed twice with PBS, and stained with LIVE/DEAD™ Fixable violet or green Dead Cell Stain Kit (Molecular probes) in PBS for 20 min at 4° C. Cells were washed with MACS buffer, and stained for appropriate surface markers for 20 min at 4° C. […] Data were analyzed using FlowJo software."}, "FLT3-DCs": {"test_system": "FLT3-DCs", "assay": "FLT3-DC stimulation, cytokine ELISA and LDH release", "format": "cell-based, mouse", "conditions": "ELISA", "protocol": "FIGS. 14A-B. Oxidized phospholipids induce hyperactive cDC1 and cDC2 cells that display a hypermigratory phenotype. (A) Wild-type or NLRP3^−/− or Casp1/11^−/− BMDCs generated using FLT3L were either left untreated (none) or treated with LPS alone, or Alum alone, or PGPC alone for 24 h, or BMDCs were primed for 3 h with LPS, then treated with indicated stimuli for 21 h. IL-1β and TNFα release was monitored by ELISA. The percentage of cell death was measured by LDH release in the cell supernatants. Means and SDs from three replicates are shown and data are representative of at least three independent experiments. (B) Wild-type BMDCs generated using FLT3L were sorted as cDC1 or cDC2 cells then treated with indicated stimuli as in A. IL-1β and TNFα release was monitored by ELISA. The percentage of cell death was measured by LDH release in the cell supernatants. Means and SDs from three independent experiments done in two different laboratories.\nVirtually all studies assessing the state of cell-hyperactivation have focused on the ability of bone marrow derived DC (BMDCs), generated with the cytokine granulocyte-macrophage colony-stimulating factor (GM-CSF), to release IL-1β while retaining viability. […] To examine whether conventional DCs can achieve a hyperactivation state, we used BMDCs generated using the DC hematopoietin Fms-like tyrosine kinase 3 ligand (Flt3L). […]"}, "[2]": {"conditions": "OVA immunization, 40 days post-immunization, ex vivo re-stimulation with OVA-loaded BMDCs"}}}
{"compound": "CCCCCCCCCCCCCCCC(=O)OC[C@H](COP(=O)([O-])OCC[N+](C)(C)C)OC(=O)CCCC(=O)O", "note": "[PGPC, [(2R)-2-(4-carboxybutanoyloxy)-3-hexadecanoyloxypropyl] 2-(trimethylazaniumyl)ethyl phosphate]", "values": [{"measurement": "antigen-specific tetramer+IFNγ+ T cell responses", "setting": "[1]", "value": "highest frequency of tetramer+IFNγ+ responses"}, {"measurement": "effector and memory T cell generation", "setting": "[1]; OVA plus LPS plus lipid, in IFA", "value": "enhance the magnitude of effector and memory T cell generation"}]}
{"compound": "lipopolysaccharide [LPS]", "values": [{"measurement": "IL-1β release", "setting": "BMDCs", "value": "did not induce the release of IL-1β"}, {"measurement": "antigen-specific tetramer+IFNγ+ T cell responses", "setting": "[1]", "value": "higher IFNγ effector function"}, {"measurement": "T central memory cells (TCM) in dLN", "setting": "[1]; 40 days post-immunization with OVA", "value": "less abundant"}, {"measurement": "IFNγ production by re-stimulated T cells", "setting": "[1]; [2]", "value": "producing IFNγ, IL-10, IL-4 and IL-13"}, {"measurement": "IL-10, IL-4 and IL-13 production by re-stimulated T cells", "setting": "[1]; [2]", "value": "producing IFNγ, IL-10, IL-4 and IL-13"}, {"measurement": "release of IL-10 and IL-13 (TH2-associated cytokines)", "setting": "OT-II naïve CD4+ T cells", "value": "large amounts of IL-10, and IL-13"}, {"measurement": "IL-1β release", "setting": "FLT3-DCs", "value": "did not induce IL-1β release from DCs"}]}
